Residues, ends and D or L forms follow the SMILES beside them.
What follows are molecules tested against T1, Kallikrein 1 (Sus scrofa) (UniProt O97506) (assay: Compound was evaluated for inhibitory activity against beta-kallikrein; No inhibition at 0.5 mM concentration).
T1 sequence (whole entry): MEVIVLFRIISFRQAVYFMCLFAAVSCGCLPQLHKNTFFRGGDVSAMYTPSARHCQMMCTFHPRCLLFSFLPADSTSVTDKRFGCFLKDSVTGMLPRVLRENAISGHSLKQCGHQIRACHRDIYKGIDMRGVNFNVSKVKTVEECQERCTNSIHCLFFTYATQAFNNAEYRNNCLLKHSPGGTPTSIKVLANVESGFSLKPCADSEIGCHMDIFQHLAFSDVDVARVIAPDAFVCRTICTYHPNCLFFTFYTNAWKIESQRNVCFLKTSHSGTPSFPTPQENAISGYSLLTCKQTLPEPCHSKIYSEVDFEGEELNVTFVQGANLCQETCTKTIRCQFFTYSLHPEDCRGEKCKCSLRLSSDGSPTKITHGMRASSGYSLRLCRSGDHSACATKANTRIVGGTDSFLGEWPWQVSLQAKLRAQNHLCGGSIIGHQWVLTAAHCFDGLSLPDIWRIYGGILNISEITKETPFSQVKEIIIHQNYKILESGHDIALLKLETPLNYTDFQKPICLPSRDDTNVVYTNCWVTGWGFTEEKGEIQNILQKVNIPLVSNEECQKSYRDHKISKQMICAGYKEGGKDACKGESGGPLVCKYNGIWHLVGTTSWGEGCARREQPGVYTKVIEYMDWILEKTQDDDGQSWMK
For CC(=O)N[C@@H](CCCN=C(N)N)C(=O)N[C@@H](CO)C(N)=O (Ac-Arg-Ser-NH2), the inhibition was “No inhibition”. In the case of CC(=O)N[C@@H](CCCN=C(N)N)C(=O)N[C@@H](CO)C(=O)N[C@H](C(N)=O)C(C)C (Ac-Arg-Ser-Val-NH2), the inhibition is reported as “No inhibition”. In the case of CC(=O)N1CCC[C@H]1C(=O)N[C@@H](Cc1ccccc1)C(=O)N[C@@H](CCCN=C(N)N)C(N)=O (Ac-Pro-Phe-Arg-NH2), the inhibition is reported as “No inhibition”. With CC(=O)N[C@@H](CO)C(=O)N1CCC[C@H]1C(N)=O (Ac-Ser-Pro-NH2) the inhibition was “No inhibition”. With CC(=O)N[C@@H](CO)C(=O)N1CCC[C@H]1C(=O)N[C@@H](Cc1ccccc1)C(N)=O (Ac-Ser-Pro-Phe-NH2) the inhibition was “No inhibition”. With CC(=O)N[C@@H](CO)C(=O)N[C@H](C(N)=O)C(C)C (Ac-Ser-Val-NH2) the inhibition was “No inhibition”.

What follows are molecules tested against T1, Kallikrein 1 (Sus scrofa) (assay: Compound was evaluated for inhibitory activity against beta-kallikrein; No inhibition at 20 mM concentration).
CC(=O)N[C@@H](CO)C(=O)N[C@H](C(=O)N[C@@H](CCC(N)=O)C(N)=O)C(C)C (Ac-Ser-Val-Gln-NH2) was tested, and the inhibition was “No inhibition”.

The molecules below were run against T1, Kallikrein 1 (Sus scrofa) (assay: Compound was evaluated for inhibitory activity against beta-kallikrein; No inhibition at 28 mM concentration).
In the case of CC(=O)N[C@H](C(=O)N[C@@H](CCC(N)=O)C(N)=O)C(C)C (Ac-Val-Gln-NH2), the inhibition is reported as “No inhibition”.

These molecules were tested against T2, Glandular kallikrein (Sus scrofa, UniProt P00752) (assay: Inhibitory activity against beta-kallikrein).
T2 sequence (P00752 whole entry): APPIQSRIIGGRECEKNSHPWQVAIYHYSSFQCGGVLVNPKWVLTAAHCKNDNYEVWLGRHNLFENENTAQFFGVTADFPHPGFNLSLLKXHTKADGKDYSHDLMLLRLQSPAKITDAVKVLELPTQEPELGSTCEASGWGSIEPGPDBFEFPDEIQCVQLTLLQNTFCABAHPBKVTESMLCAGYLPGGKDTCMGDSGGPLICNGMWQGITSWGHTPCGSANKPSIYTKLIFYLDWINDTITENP
CC(=O)N[C@@H](Cc1ccccc1)C(=O)N[C@@H](CCCNC(=N)N)C(=O)N[C@@H](CO)C(=O)N[C@H](C(N)=O)C(C)C (Ac-FRSV-NH2) showed a Ki of 479 µM. With CC(=O)N1CCC[C@H]1C(=O)N[C@@H](Cc1ccccc1)C(=O)N[C@@H](CCCN=C(N)N)C(=O)N[C@@H](CO)C(N)=O (Ac-PFRS-NH2) the Ki was 578 µM. CC(=O)N[C@@H](Cc1ccccc1)C(=O)N[C@@H](CCCNC(=N)N)C(=O)N[C@@H](CO)C(N)=O (Ac-Phe-Arg-Ser-NH2) showed a Ki of 718 µM. CC(=O)N[C@@H](CCCNC(=N)N)C(=O)N[C@@H](CO)C(=O)N[C@H](C(=O)N[C@@H](CCC(N)=O)C(N)=O)C(C)C (Ac-RSVQ-NH2) was tested, and the Ki was 950 µM. For CC(=O)N[C@@H](CO)C(=O)N1CCC[C@H]1C(=O)N[C@@H](Cc1ccccc1)C(=O)N[C@@H](CCCN=C(N)N)C(N)=O (Ac-SPFR-NH2), the Ki was 2290 µM. Molecule Ac-FRSVQ-NH2 has a Ki of 230 µM. With Ac-PFRSV-NH2 the Ki was 266 µM. Ac-PFRSVQ-NH2 showed a Ki of 167 µM. Ac-SPFRS-NH2 gave a Ki of 223 µM. For Ac-SPFRSV-NH2, the Ki was 135 µM. Molecule Ac-SPFRSVQ-NH2 has a Ki of 101 µM.

What follows are molecules tested against T1, Kallikrein 1 (Sus scrofa) (assay: Compound was evaluated for inhibitory activity against beta-kallikrein; No inhibition at 1 mM concentration).
With CC(=O)N[C@@H](Cc1ccccc1)C(=O)N[C@@H](CCCN=C(N)N)C(N)=O (Ac-Phe-Arg-NH2) the inhibition was “No inhibition”. For CC(=O)N1CCC[C@H]1C(=O)N[C@@H](Cc1ccccc1)C(N)=O (Ac-Pro-Phe-NH2), the inhibition was “No inhibition”.
